Laboratory results reported in the NIST ThermoML archive (doi:10.1007/s10765-015-2006-0).

Key:
[1] = mn = molality of the nth substance listed, in mol/kg; settings: 101 kPa, Liquid, Frequency=3 MHz, Sing-around technique in a fixed-path interferometer
[2] = 101 kPa, Liquid, Frequency=3 MHz, Sing-around technique in a fixed-path interferometer

C[C@H](N)C(=O)O [(S)-2-aminopropanoic acid] + O
speed of sound [m/s], [1]
Settings | m1 = 0.00939 | m1 = 0.04689 | m1 = 0.09896 | m1 = 0.2003 | m1 = 0.2979 | m1 = 0.3997 | m1 = 0.4941 | m1 = 0.6099 | m1 = 0.6973 | m1 = 0.7978
288.15 K | 1467.6 | 1469.9 | 1472.8 | 1480.3 | 1487.3 | 1494.3 | 1500.3 | 1509.5 | 1513.3 | 1520
298.15 K | 1497.9 | 1499.8 | 1502.8 | 1509.6 | 1515.9 | 1522.7 | 1528 | 1536.7 | 1540.4 | 1546.2
308.15 K | 1520.8 | 1522.7 | 1525.5 | 1531.8 | 1537.9 | 1544 | 1549 | 1556.8 | 1560.7 | 1566
318.15 K | 1537 | 1539.2 | 1542 | 1547.9 | 1553.2 | 1558.7 | 1564.1 | 1571.4 | 1574.7 | 1611.9

NCC(=O)O [2-aminoacetic acid] + O
speed of sound [m/s], [1]
Settings | m1 = 0.01207 | m1 = 0.0523 | m1 = 0.1037 | m1 = 0.2037 | m1 = 0.3068 | m1 = 0.4124 | m1 = 0.5028 | m1 = 0.6058 | m1 = 0.6829 | m1 = 0.82
288.15 K | 1467.2 | 1470.1 | 1472.3 | 1477.8 | 1483.4 | 1488.7 | 1494.5 | 1499.2 | 1503.4 | 1510.2
298.15 K | 1497.7 | 1500.1 | 1502.3 | 1507.2 | 1512.4 | 1517.8 | 1523 | 1527.3 | 1531.3 | 1537.7
308.15 K | 1520 | 1522.9 | 1524.7 | 1529.7 | 1534.6 | 1539.7 | 1543.8 | 1548.7 | 1552.5 | 1558.6
318.15 K | 1537.2 | 1538.9 | 1541.1 | 1545.8 | 1551.4 | 1555.4 | 1560.2 | 1564.1 | 1567.7 | 1573.5

O=C([O-])CC(O)(CC(=O)[O-])C(=O)[O-].[NH4+].[NH4+].[NH4+] [ammonium 2-hydroxypropane-1,2,3-tricarboxylate] + O
speed of sound [m/s], [1]
Settings | 288.15 K | 298.15 K | 308.15 K | 318.15 K
m1 = 0.2 | 1503.6 | 1532.2 | 1553.8 | 1569
m1 = 0.4 | 1540.7 | 1567.5 | 1587.7 | 1602.1
m1 = 0.6 | 1578.5 | 1603.3 | 1622 | 1635.2
m1 = 0.8 | 1615.6 | 1638.6 | 1655.7 | 1667.6

O [water]
[2]
Settings | speed of sound [m/s]
288.15 K | 1463.1
298.15 K | 1495.8
308.15 K | 1519.1

CC(C)[C@H](N)C(=O)O [L-valine] + O
speed of sound [m/s], [1]
Settings | m1 = 0.00555 | m1 = 0.02398 | m1 = 0.03504 | m1 = 0.05824 | m1 = 0.07873 | m1 = 0.09938 | m1 = 0.2068 | m1 = 0.2992 | m1 = 0.4017
288.15 K | 1467.4 | 1467.3 | 1469.7 | 1469.6 | 1472.8 | 1474.8 | 1477 | 1488.4 | 1497.2
298.15 K | 1497.5 | 1497.4 | 1499.6 | 1499.7 | 1502.4 | 1504.4 | 1506.2 | 1516.6 | 1524.8
308.15 K | 1520.4 | 1520.4 | 1522 | 1522.6 | 1525 | 1526.9 | 1528.2 | 1537.8 | 1545.2
318.15 K | 1537.1 | 1537.4 | 1538.7 | 1539 | 1541.2 | 1542.7 | 1544.4 | 1552.5 | 1560.4
